Source: the kinase profiling compilation of Christmann-Franck et al. (2016)

Key:
Assay in all cases: KINOMEscan competition binding
Settings in all cases: compound 10.0 µM
TSSK1B (human) = TSSK1B (human) (UniProt Q9BXA7)
ERN1 (human) = ERN1 (human) (UniProt O75460)
ANKK1 (human) = ANKK1 (human) (UniProt Q8NFD2)
TNIK (human) = TNIK (human) (UniProt Q9UKE5)
CDK4 CCND3 (human) = CDK4 CCND3 (human) (UniProt P11802+P30281)
BLK (human) = BLK (human) (UniProt P51451)
[1] = target: TYK2 JH1 catalytic (human) (UniProt P29597)
RPS6KA1 KD2 (human) = RPS6KA1 KD2 (human) (UniProt Q15418)
CDK18 (human) = CDK18 (human) (UniProt Q07002)
CDK18 (human), sequence (Q07002 whole entry, looked up): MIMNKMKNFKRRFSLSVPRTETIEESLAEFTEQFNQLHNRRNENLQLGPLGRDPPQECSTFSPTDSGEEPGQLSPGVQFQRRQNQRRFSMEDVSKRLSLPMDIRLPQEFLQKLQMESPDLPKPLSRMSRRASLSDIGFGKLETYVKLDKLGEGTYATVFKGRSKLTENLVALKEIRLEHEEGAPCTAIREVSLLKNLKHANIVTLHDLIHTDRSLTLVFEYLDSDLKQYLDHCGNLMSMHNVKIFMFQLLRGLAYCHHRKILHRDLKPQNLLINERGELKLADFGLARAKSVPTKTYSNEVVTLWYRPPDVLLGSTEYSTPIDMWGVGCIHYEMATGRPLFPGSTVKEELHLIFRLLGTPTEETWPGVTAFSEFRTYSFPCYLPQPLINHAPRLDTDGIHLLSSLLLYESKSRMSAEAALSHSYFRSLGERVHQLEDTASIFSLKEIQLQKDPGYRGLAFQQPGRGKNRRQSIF

FLT1 (human) = FLT1 (human) (UniProt P17948)
FLT1 (human), sequence (P17948 whole entry, looked up): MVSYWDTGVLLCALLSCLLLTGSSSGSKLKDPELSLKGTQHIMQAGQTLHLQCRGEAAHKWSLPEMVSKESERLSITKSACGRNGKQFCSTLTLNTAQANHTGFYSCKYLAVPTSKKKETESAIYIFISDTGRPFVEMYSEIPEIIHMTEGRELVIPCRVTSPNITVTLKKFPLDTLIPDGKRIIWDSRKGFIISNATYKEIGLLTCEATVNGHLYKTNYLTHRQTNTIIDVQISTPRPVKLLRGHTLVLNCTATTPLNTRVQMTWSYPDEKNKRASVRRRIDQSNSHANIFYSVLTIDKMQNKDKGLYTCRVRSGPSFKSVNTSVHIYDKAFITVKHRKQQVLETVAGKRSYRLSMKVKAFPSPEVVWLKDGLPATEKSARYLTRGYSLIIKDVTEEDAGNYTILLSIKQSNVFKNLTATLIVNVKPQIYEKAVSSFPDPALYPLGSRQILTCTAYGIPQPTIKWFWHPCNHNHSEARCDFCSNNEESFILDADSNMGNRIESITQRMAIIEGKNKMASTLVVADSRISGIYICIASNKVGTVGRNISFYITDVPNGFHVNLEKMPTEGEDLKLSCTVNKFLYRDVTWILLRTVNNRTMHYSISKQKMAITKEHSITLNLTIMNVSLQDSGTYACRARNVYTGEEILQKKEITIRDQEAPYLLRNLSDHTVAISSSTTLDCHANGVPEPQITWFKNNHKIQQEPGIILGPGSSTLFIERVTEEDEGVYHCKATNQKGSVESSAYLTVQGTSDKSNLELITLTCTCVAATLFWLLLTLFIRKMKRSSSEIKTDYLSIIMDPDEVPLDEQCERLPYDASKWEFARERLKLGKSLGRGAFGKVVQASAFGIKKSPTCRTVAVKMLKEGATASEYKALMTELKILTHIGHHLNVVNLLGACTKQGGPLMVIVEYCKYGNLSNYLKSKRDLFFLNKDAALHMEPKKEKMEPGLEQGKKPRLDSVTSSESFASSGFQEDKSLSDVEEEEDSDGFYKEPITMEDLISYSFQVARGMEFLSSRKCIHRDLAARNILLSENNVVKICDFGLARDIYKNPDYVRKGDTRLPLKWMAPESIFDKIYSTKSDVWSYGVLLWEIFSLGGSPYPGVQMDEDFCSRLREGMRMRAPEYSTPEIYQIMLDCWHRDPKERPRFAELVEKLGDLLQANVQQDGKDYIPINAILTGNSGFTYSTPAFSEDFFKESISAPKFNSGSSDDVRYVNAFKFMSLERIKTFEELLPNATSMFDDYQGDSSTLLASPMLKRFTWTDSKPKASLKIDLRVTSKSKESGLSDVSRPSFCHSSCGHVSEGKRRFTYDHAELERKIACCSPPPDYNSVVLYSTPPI

CaMK1 (human) = CaMK1 (human) (UniProt Q14012)
PAK1 (human) = PAK1 (human) (UniProt Q13153)
NEK3 (human) = NEK3 (human) (UniProt P51956)
[2] = tested on: BMX (human), P51813 [V600E]
PLK3 (human) = PLK3 (human) (UniProt Q9H4B4)
NEK7 (human) = NEK7 (human) (UniProt Q8TDX7)
ADCK3 (human) = ADCK3 (human) (UniProt Q8NI60)
RPS6KA4 KD1 (human) = RPS6KA4 KD1 (human) (UniProt O75676)
HIPK1 (human) = HIPK1 (human) (UniProt Q86Z02)
RIOK3 (human) = RIOK3 (human) (UniProt O14730)
BRSK1 (human) = BRSK1 (human) (UniProt Q8TDC3)
CSK (human) = CSK (human) (UniProt P41240)
CSK (human), sequence (P41240 whole entry, looked up): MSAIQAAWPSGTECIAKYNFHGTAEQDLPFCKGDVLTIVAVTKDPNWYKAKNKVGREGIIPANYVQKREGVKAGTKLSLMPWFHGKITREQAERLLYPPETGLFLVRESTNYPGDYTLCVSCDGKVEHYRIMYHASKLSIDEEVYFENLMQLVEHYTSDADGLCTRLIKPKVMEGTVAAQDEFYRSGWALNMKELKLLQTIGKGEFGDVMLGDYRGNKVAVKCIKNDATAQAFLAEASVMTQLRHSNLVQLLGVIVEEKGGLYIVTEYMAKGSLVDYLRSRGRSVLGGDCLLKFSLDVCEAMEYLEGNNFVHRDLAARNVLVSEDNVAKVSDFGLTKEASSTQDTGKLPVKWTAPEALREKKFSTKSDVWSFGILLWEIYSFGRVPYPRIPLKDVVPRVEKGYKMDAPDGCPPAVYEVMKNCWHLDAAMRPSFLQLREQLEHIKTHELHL

PRKG2 (human) = PRKG2 (human) (UniProt Q13237)
CDC42BPG (human) = CDC42BPG (human) (UniProt Q6DT37)
SNRK (human) = SNRK (human) (UniProt Q9NRH2)
STK17B (human) = STK17B (human) (UniProt O94768)
IRAK1 (human) = IRAK1 (human) (UniProt P51617)
MAPK8 (human) = MAPK8 (human) (UniProt P45983)
MAP2K2 (human) = MAP2K2 (human) (UniProt P36507)
MATK (human) = MATK (human) (UniProt P42679)
MATK (human), sequence (P42679 whole entry, looked up): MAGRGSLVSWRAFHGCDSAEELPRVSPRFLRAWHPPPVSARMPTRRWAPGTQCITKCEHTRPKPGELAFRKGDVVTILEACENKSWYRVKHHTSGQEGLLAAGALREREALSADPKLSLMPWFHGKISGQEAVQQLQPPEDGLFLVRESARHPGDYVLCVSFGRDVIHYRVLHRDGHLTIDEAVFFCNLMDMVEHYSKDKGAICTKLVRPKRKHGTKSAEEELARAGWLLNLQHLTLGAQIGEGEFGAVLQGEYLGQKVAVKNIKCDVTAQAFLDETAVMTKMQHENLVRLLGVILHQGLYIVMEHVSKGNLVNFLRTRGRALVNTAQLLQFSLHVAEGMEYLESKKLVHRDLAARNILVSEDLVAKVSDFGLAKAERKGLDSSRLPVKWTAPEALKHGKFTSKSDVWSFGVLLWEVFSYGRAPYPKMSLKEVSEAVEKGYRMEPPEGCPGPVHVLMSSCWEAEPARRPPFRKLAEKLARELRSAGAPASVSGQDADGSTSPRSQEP

MST1R (human) = MST1R (human) (UniProt Q04912)
PRPF4B (human) = PRPF4B (human) (UniProt Q13523)
NTRK3 (human) = NTRK3 (human) (UniProt Q16288)
PHKG2 (human) = PHKG2 (human) (UniProt P15735)
MAPK15 (human) = MAPK15 (human) (UniProt Q8TD08)
TLK1 (human) = TLK1 (human) (UniProt Q9UKI8)
SGK110 (human) = SGK110 (human) (UniProt P0C264)
SGK110 (human), sequence (P0C264 whole entry, looked up): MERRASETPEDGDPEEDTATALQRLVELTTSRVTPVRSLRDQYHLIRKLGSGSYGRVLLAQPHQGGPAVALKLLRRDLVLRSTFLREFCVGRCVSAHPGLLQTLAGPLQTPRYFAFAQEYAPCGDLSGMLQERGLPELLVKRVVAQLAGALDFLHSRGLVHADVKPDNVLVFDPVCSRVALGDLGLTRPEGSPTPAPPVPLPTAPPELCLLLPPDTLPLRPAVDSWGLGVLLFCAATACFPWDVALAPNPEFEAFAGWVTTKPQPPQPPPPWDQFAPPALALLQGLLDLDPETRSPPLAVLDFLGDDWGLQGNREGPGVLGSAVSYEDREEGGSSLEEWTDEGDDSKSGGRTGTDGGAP

[3] = tested on: EGFR (human), P00533 [G719C]
MAP4K5 (human) = MAP4K5 (human) (UniProt Q9Y4K4)
[4] = tested on: FLT3 (human), P36888 [D835Y]

TNIK (human), sequence (Q9UKE5 whole entry, looked up): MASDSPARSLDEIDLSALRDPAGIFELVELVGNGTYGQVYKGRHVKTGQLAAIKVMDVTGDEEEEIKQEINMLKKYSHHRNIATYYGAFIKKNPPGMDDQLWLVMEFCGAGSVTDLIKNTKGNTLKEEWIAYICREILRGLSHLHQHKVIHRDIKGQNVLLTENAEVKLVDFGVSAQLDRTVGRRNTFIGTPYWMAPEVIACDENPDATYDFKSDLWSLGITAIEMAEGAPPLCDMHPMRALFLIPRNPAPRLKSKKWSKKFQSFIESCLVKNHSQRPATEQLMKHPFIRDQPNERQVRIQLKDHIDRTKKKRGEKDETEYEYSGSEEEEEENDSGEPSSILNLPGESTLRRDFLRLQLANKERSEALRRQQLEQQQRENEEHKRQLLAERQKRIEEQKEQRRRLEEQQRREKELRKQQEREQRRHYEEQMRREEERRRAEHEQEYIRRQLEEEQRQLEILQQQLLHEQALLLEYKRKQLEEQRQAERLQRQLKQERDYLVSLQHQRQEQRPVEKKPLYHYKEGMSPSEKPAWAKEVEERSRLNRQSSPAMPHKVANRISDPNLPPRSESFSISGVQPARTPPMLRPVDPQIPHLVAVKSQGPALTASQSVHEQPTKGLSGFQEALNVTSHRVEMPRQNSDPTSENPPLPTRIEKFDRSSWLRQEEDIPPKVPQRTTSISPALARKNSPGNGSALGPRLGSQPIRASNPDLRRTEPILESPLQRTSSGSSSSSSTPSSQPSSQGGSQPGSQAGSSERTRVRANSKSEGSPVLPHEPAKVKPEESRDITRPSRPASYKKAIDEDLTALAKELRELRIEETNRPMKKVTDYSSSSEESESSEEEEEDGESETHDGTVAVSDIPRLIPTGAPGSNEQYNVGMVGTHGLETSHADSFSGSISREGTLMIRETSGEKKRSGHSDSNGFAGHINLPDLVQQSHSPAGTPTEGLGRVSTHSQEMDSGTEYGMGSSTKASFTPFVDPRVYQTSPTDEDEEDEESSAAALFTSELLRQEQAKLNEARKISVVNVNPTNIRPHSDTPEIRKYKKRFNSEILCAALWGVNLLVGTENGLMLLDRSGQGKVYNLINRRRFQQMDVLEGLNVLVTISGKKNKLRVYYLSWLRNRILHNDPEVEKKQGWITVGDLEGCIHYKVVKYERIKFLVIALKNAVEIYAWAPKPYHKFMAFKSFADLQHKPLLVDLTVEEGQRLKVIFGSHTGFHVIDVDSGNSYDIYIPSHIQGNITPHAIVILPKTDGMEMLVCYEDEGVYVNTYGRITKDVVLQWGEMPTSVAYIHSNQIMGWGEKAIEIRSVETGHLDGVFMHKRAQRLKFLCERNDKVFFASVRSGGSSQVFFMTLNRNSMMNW
TSSK1B (human), sequence (Q9BXA7 whole entry, looked up): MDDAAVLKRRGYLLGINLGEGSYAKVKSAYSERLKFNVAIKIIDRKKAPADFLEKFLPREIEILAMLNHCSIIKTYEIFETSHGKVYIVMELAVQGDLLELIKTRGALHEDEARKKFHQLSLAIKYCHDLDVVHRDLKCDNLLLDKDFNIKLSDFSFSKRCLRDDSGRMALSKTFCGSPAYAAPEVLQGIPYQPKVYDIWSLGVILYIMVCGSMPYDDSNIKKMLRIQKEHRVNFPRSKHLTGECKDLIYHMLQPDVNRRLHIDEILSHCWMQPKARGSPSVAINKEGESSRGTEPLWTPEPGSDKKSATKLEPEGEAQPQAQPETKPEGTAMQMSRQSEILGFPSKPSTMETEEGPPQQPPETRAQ

Compound | kinase still bound, per cent of control (TSSK1B (human)) [%] | kinase still bound, per cent of control (ERN1 (human)) [%] | kinase still bound, per cent of control (ANKK1 (human)) [%] | kinase still bound, per cent of control (TNIK (human)) [%] | kinase still bound, per cent of control (CDK4 CCND3 (human)) [%] | kinase still bound, per cent of control (BLK (human)) [%] | kinase still bound, per cent of control [1] [%] | kinase still bound, per cent of control (RPS6KA1 KD2 (human)) [%] | kinase still bound, per cent of control (CDK18 (human)) [%] | kinase still bound, per cent of control (FLT1 (human)) [%] | kinase still bound, per cent of control (PAK1 (human)) [%] | kinase still bound, per cent of control (NEK3 (human)) [%] | kinase still bound, per cent of control [2] [%] | kinase still bound, per cent of control (PLK3 (human)) [%] | kinase still bound, per cent of control (NEK7 (human)) [%] | kinase still bound, per cent of control (ADCK3 (human)) [%] | kinase still bound, per cent of control (RPS6KA4 KD1 (human)) [%] | kinase still bound, per cent of control (HIPK1 (human)) [%] | kinase still bound, per cent of control (RIOK3 (human)) [%] | kinase still bound, per cent of control (BRSK1 (human)) [%] | further results
CCc1nc(-c2cccc(C)c2)c(-c2ccnc(NC(=O)c3ccccc3)c2)s1 | 87 | 100 | 83 | 5.5 | 92 | 17 | 100 | 28 | 96 | 31 | 76 | 100 | 23 | 98 | 100 | 0.2 | 100 | 94 | 100 | 93 | kinase still bound, per cent of control (CaMK1 (human)): 85%; kinase still bound, per cent of control (CSK (human)): 88%; kinase still bound, per cent of control (PRKG2 (human)): 100%; kinase still bound, per cent of control (CDC42BPG (human)): 15%; kinase still bound, per cent of control (SNRK (human)): 100%; kinase still bound, per cent of control (STK17B (human)): 91%; kinase still bound, per cent of control (IRAK1 (human)): 99%; kinase still bound, per cent of control (MAPK8 (human)): 0.3%; kinase still bound, per cent of control (MAP2K2 (human)): 90%; kinase still bound, per cent of control (MATK (human)): 100%; kinase still bound, per cent of control (MST1R (human)): 88%; kinase still bound, per cent of control (PRPF4B (human)): 80%; kinase still bound, per cent of control (NTRK3 (human)): 96%; kinase still bound, per cent of control (PHKG2 (human)): 76%; kinase still bound, per cent of control (MAPK15 (human)): 100%; kinase still bound, per cent of control (TLK1 (human)): 82%; kinase still bound, per cent of control (SGK110 (human)): 100%
CCCS(=O)(=O)Nc1ccc(F)c(C(=O)c2c[nH]c3ncc(Cl)cc23)c1F | 83 | 78 | 98 | 24 | 70 | 1.7 | 24 | 75 | 73 | 28 | 11 | 69 | 0 | 96 | 59 | 92 | 85 | 36 | 100 | 55 | kinase still bound, per cent of control [3]: 50%; kinase still bound, per cent of control (CSK (human)): 2.7%; kinase still bound, per cent of control (PRKG2 (human)): 93%; kinase still bound, per cent of control (MAP4K5 (human)): 22%; kinase still bound, per cent of control (CDC42BPG (human)): 74%; kinase still bound, per cent of control (SNRK (human)): 100%; kinase still bound, per cent of control (STK17B (human)): 68%; kinase still bound, per cent of control (IRAK1 (human)): 60%; kinase still bound, per cent of control (MAPK8 (human)): 96%; kinase still bound, per cent of control (MAP2K2 (human)): 1%; kinase still bound, per cent of control (MATK (human)): 90%; kinase still bound, per cent of control (MST1R (human)): 100%; kinase still bound, per cent of control (PRPF4B (human)): 82%; kinase still bound, per cent of control (NTRK3 (human)): 77%; kinase still bound, per cent of control (PHKG2 (human)): 52%; kinase still bound, per cent of control [4]: 31%; kinase still bound, per cent of control (MAPK15 (human)): 97%; kinase still bound, per cent of control (TLK1 (human)): 58%; kinase still bound, per cent of control (SGK110 (human)): 100%
CCN(CCO)CCCOc1ccc2c(Nc3cc(CC(=O)Nc4cccc(F)c4)[nH]n3)ncnc2c1 | 87 | 67 | 11 | 52 | 100 | 9.6 | 85 | 69 | 62 | 1 | 100 | 100 | 100 | 89 | 94 | 85 | 73 | 40 | 100 | 64 | kinase still bound, per cent of control (CaMK1 (human)): 69%; kinase still bound, per cent of control (CSK (human)): 24%; kinase still bound, per cent of control (PRKG2 (human)): 92%; kinase still bound, per cent of control (MAP4K5 (human)): 0.95%; kinase still bound, per cent of control (CDC42BPG (human)): 100%; kinase still bound, per cent of control (SNRK (human)): 100%; kinase still bound, per cent of control (STK17B (human)): 93%; kinase still bound, per cent of control (IRAK1 (human)): 63%; kinase still bound, per cent of control (MAPK8 (human)): 59%; kinase still bound, per cent of control (MAP2K2 (human)): 21%; kinase still bound, per cent of control (MATK (human)): 71%; kinase still bound, per cent of control (MST1R (human)): 25%; kinase still bound, per cent of control (PRPF4B (human)): 67%; kinase still bound, per cent of control (NTRK3 (human)): 56%; kinase still bound, per cent of control (PHKG2 (human)): 81%; kinase still bound, per cent of control (MAPK15 (human)): 100%; kinase still bound, per cent of control (TLK1 (human)): 60%; kinase still bound, per cent of control (SGK110 (human)): 100%
